This passage reports EC50 results from patent US8785488B2 (Exelixis Patent Company LLC, priority 2009, dated 2014).

The assay concerns the target T1, human TGR5 (h-TGR5) (Homo sapiens, UniProt Q8TDU6).
T1 construct: expressed in transfected cells
T1 sequence (Q8TDU6 1-330): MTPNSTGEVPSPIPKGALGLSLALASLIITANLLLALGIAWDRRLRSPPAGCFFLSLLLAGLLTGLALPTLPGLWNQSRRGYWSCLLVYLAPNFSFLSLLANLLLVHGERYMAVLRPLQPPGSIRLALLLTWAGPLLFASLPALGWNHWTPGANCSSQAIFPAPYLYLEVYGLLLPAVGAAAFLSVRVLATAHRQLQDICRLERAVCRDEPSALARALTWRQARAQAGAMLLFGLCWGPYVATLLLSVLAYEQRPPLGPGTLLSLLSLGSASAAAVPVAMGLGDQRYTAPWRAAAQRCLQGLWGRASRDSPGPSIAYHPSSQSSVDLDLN
Put plainly: TGR5/CRE-Luciferiase Assay (HEK 293 hTGR5/CRE-Luc cells). The assay is classed as cell-based. The procedure: Compounds were serially diluted in DMEM containing 5% DMSO and 5 μL of compound or media alone was transferred to each well and plates were incubated for 6 hours. Following incubation, 30 μL of lysis/luciferase buffer was added to each well. The luciferase activity was then measured on the EnVision™ plate reader and the dose response data was analyzed using ActivityBase.
In the following tables, EC50 values determined according to the TGR5 cAMP Assay described herein (cAMP); EC50 values determined according to the TGR5/CRE-Luciferiase Assay described herein (CRE-Luc). […] The following compounds in Tables 1 and 2 were made by using procedures described in the above Schemes and Examples, and, where applicable, by making any necessary substitutions of known materials that one skilled in the art would ordinarily understand how to do.

Where [1] appears, read: h-TGR5 CRE-Luc EC50, Table 1, read-out: CRE-Luc (EC50).

Where a name gives a salt, the structure may show the parent alone. Read-outs that look alike come from different tables or passages of the source.

Usually EC50 stands for the concentration needed to bring the measured effect to its halfway point. Consider `CC(C)(c1ccc(Cl)c(Cl)c1)c1cnc(CCc2c(F)cc(C(=O)O)cc2Cl)n1-c1ccc(F)cc1` [3-chloro-4-(2-{5-[1-(3,4-dichlorophenyl)-1-methylethyl]-1-(4-fluorophenyl)-1H-imidazol-2-yl}ethyl)-5-fluorobenzoic acid], for which the EC50 under setting [1] is 100 to 1000 nM.

Turning to `CC(C)(Oc1cc(-n2c(C(C)(C)c3ccc(Cl)c(Cl)c3)cnc2SCc2ccc(F)cc2Cl)ccc1F)C(=O)O` [2-{[5-(2-{[(2-chloro-4-fluorophenyl)methyl]thio}-5-[1-(3,4-dichlorophenyl)-1-methylethyl]-1H-imidazol-1-yl)-2-fluorophenyl]oxy}-2-methylpropanoic acid], under setting [1], the EC50 was in the range of 1000 to 10000 nM.

For `CC(C)(Oc1cc(CSc2ncc(C(C)(C)c3ccc(Cl)c(Cl)c3)n2-c2ccc(F)cc2)ccc1F)C(=O)O` [2-({5-[({5-[1-(3,4-dichlorophenyl)-1-methylethyl]-1-(4-fluorophenyl)-1H-imidazol-2-yl}thio)methyl]-2-fluorophenyl}oxy)-2-methylpropanoic acid], under setting [1], the EC50 fell in the range of 100 to 1000 nM.

As to `CC(C)(c1ccc(OCC(=O)O)c(Cl)c1)c1cnc(SCc2ccc(F)cc2Cl)n1-c1ccc(F)cc1` [[(2-chloro-4-{1-[2-{[(2-chloro-4-fluorophenyl)methyl]thio}-1-(4-fluorophenyl)-1H-imidazol-5-yl]-1-methylethyl}phenyl)oxy]acetic acid], the EC50 under setting [1] lay within 1000 to 10000 nM.

For the compound `CC(C)(c1ccc(O)c(O)c1)c1cnc(SCc2ccc(F)cc2Cl)n1-c1ccc(F)cc1` [4-{1-[2-{[(2-chloro-4-fluorophenyl)methyl]thio}-1-(4-fluorophenyl)-1H-imidazol-5-yl]-1-methylethyl}benzene-1,2-diol], the EC50 under setting [1] is below 100 nM.

`CC(C)(c1ccc(Cl)c(Cl)c1)c1cnc(SCC2CCN(c3ccc(F)cc3)CC2)n1-c1ccc(F)cc1` [4-[({5-[1-(3,4-dichlorophenyl)-1-methylethyl]-1-(4-fluorophenyl)-1H-imidazol-2-yl}thio)methyl]-1-(4-fluorophenyl)piperidine]: the EC50 under setting [1] lay within 1000 to 10000 nM.

In the case of `CC(C)(c1ccc(Cl)c(Cl)c1)c1cnc(SCc2ccc(F)c(C(=O)NCC(F)(F)F)c2)n1-c1ccc(F)cc1` [5-[({5-[1-(3,4-dichlorophenyl)-1-methylethyl]-1-(4-fluorophenyl)-1H-imidazol-2-yl}thio)methyl]-2-fluoro-N-(2,2,2-trifluoroethyl)benzamide], the EC50 under setting [1] is 100 to 1000 nM.

As to `CC(C)(c1ccc(Cl)c(Cl)c1)c1cnc(SCc2ccc(F)c(C#N)c2)n1-c1ccc(F)cc1` [5-[({5-[1-(3,4-dichlorophenyl)-1-methylethyl]-1-(4-fluorophenyl)-1H-imidazol-2-yl}thio)methyl]-2-fluorobenzonitrile], the EC50 under setting [1] is 100 to 1000 nM.

As to `CC(C)(c1ccc(Cl)c(Cl)c1)c1cnc(SCc2ccc(-c3nnn[nH]3)c(Cl)c2)n1-c1ccc(F)cc1` [5-{2-chloro-4-[({5-[1-(3,4-dichlorophenyl)-1-methylethyl]-1-(4-fluorophenyl)-1H-imidazol-2-yl}thio)methyl]phenyl}-1H-tetrazole], under setting [1], the EC50 lay within 100 to 1000 nM.

In the case of `CC(C)NC(=O)N1CCC(CSc2ncc(C(C)(C)c3ccc(F)c(F)c3)n2-c2ccc(F)cc2)CC1` [4-[({5-[1-(3,4-difluorophenyl)-1-methylethyl]-1-(4-fIuorophenyl)-1H-imidazol-2-yl}thio)methyl]-N-(1-methylethyl)piperidine-1-carboxamide], the EC50 under setting [1] was 100 to 1000 nM.

For the compound `COc1ccc(Cc2nnc(SCc3ccc(F)cc3Cl)n2-c2ccc(F)cc2)cc1` [Example 28, hydrochloride], the EC50 (HEK 293 hTGR5/CRE-Luc cells, 6 hours incubation, luciferase activity, Table 2, read-out: h-TGR5CRE-Luc EC50 (CRE-Luc)) lay in the range of 1000 to 10000 nM.

Consider `CC(C)(c1ccc(Cl)c(Cl)c1)c1cnc(SCC2CCN(c3nnn[nH]3)CC2)n1-c1ccc(F)c(F)c1` [4-[({5-[1-(3,4-dichlorophenyl)-1-methylethyl]-1-(3,4-difluorophenyl)-1H-imidazol-2-yl}thio)methyl]-1-(1H-tetrazol-5-yl)piperidine], for which, under setting [1], the EC50 was below 100 nM.
